Assay results reported in patent publication US20180049998A1, “Naphthoquinone Compounds and Methods for Preparing the Same” (priority 2016, published 2018).

melting point: 96 °C
Compound: CCOC(=O)C(C)(CCC1=C(C)C(=O)c2ccccc2C1=O)C(=O)OCC
